Key:
[1] = biological target: T1, Angiotensin II receptor (AT-1) type-1 (Rattus norvegicus, UniProt P29089+P25095); assay: Inhibitory concentration was evaluated by measuring displacement of [3H]AII from rat liver Angiotensin II receptor, type 1
T1 sequence (P29089 whole entry): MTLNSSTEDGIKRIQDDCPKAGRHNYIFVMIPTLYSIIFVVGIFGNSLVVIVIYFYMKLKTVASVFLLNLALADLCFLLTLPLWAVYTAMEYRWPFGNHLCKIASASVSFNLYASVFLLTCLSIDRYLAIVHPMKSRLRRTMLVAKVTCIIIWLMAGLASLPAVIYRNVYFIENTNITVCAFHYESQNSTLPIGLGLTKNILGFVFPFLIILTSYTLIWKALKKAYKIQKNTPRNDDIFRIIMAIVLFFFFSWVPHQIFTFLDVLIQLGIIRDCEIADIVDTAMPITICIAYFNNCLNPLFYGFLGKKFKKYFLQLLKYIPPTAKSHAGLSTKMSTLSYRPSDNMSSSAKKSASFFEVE
T1 sequence (P25095 whole entry): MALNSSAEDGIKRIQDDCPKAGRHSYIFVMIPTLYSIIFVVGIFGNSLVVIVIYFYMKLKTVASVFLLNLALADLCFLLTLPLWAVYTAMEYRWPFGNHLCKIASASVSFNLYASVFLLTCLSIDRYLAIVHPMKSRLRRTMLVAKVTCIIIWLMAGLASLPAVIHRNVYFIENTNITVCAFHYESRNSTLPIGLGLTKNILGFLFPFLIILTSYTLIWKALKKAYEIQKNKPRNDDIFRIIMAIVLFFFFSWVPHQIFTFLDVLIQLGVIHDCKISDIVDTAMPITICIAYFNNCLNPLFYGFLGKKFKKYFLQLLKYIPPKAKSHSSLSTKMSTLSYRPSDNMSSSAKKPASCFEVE

[2] = system: Rattus norvegicus; assay: (§1) In vivo inhibitory percentage of pressor response induced by exogenous submaximal dose of angiotensin -II […] administered iv to pithed rats; format: functional
[3] = system: Rattus norvegicus; assay: as §1; format: functional; remark: listed apart in the source
[4] = biological target: Angiotensin II receptor (Rattus norvegicus) (UniProt P29089+P25095+P35351); assay: In vivo inhibitory percentage of pressor response induced by exogenous submaximal dose of angiotensin-II (3 ug/kg) administered iv to pithed rats; format: functional, organism-based
[5] = species on record: Oryctolagus cuniculus; assay: Antagonism against A-2 induced contraction of aortic rings of rabbit.; conditions: read-out: pA2 (converted)
[6] = species on record: Oryctolagus cuniculus; assay: Antagonism against A-2 induced contraction of aortic rings from rabbit.; format: functional; conditions: Aorta, read-out: pA2 (converted)

Chain of Angiotensin II receptor (Rattus norvegicus) (P35351 whole entry, looked up, one chain of several): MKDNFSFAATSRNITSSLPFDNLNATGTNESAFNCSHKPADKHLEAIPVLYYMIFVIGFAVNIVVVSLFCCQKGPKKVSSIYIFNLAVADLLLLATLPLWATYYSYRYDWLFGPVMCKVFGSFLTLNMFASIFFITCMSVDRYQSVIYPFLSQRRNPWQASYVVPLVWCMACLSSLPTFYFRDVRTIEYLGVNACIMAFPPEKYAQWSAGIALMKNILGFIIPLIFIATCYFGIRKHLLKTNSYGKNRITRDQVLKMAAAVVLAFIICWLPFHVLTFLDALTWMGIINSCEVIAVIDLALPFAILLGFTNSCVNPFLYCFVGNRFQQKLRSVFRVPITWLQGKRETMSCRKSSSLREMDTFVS

SMILES | IC50 [1] [nM] | inhibition [4] [%] | further results
CCc1nc2c(C)cc(C)nc2n1Cc1ccc([C@H](c2ccccc2)[C@@H](C)C(=O)O)o1 | 5600 | – | Inhibition [3]: <10%
CCc1nc2c(C)cc(C)nc2n1Cc1ccc(/C(=C(/Br)c2nn[nH]n2)c2ccccc2)cc1 (stereo in doubt; 22d) [listing 1 of 2 here] | – | 22.8 | –
CCc1nc2c(C)cc(C)nc2n1Cc1ccc(/C(=C\C(=O)O)c2ccccc2)cc1 (stereo in doubt; 12A) [listing 1 of 2 here] | 120 | – | –
CCc1nc2c(C)cc(C)nc2n1Cc1ccc(/C(=C(/Br)c2nn[nH]n2)c2ccccc2)cc1 (stereo in doubt; 22c) [listing 1 of 2 here] | – | 39.9 | –
CCc1nc2c(C)cc(C)nc2n1Cc1ccc([C@H](c2ccccc2)[C@H](C)C(=O)O)o1 | 4800 | – | Inhibition [3]: <10%
CCc1nc2c(C)cc(C)nc2n1Cc1ccc(C(CC(=O)O)c2ccccc2Cl)cc1 (stereo not given) | 200 | 69.1 | –
CCc1nc2c(C)cc(C)nc2n1Cc1ccc(C(CC(=O)NS(=O)(=O)c2ccccc2)c2ccccc2)cc1 (stereo not given) | 360 | 48.2 | –
CCc1nc2c(C)cc(C)nc2n1Cc1ccc(C(CCNS(=O)(=O)C(F)(F)F)c2ccccc2)cc1 (stereo not given) | > 10000 | – | –
CCc1nc2c(C)cc(C)nc2n1Cc1ccc(C(CC(=O)O)c2ccc(F)cc2F)cc1 (stereo not given) | 250 | 40.4 | –
CCc1nc2c(C)cc(C)nc2n1Cc1ccc(/C(=C\c2nn[nH]n2)c2ccccc2)cc1 (stereo in doubt; 22a) [listing 1 of 2 here] | 92 | – | –
CCc1nc2c(C)cc(C)nc2n1Cc1ccc(C(c2ccccc2)C(Cc2ccccc2)C(=O)O)cc1 (stereo not given) | 200 | 31.5 | –
CCc1nc2c(C)cc(C)nc2n1Cc1ccc(C(=C(C(=O)O)C(=O)O)c2ccccc2)cc1 | 320 | 69.2 | –
CCc1nc2c(C)cc(C)nc2n1Cc1ccc(/C(=C\c2nn[nH]n2)c2ccccc2)cc1 (stereo in doubt; 22b) [listing 1 of 2 here] | – | < 10 | –
CCc1nc2c(C)cc(C)nc2n1Cc1ccc(C(CC)C(C)C(=O)O)cc1 (stereo not given) | 330 | 45.7 | –
CCc1nc2c(C)cc(C)nc2n1Cc1ccc(C(CC(=O)NS(C)(=O)=O)c2ccccc2)cc1 (stereo not given) | 94 | 72.7 | –
CCc1nc2c(C)cc(C)nc2n1Cc1ccc(/C(=C(/Br)c2nn[nH]n2)c2ccccc2)cc1 (stereo in doubt; 22c) [listing 2 of 2 here] | 44 | – | –
CCc1nc2c(C)cc(C)nc2n1Cc1ccc(/C(=C\C(=O)O)c2ccccc2)cc1 (stereo in doubt; 12B) [listing 1 of 2 here] | 170 | – | –
CCCCc1nc(Cl)c(CO)n1Cc1ccc(-c2ccccc2-c2nnn[nH]2)cc1 [LOSARTAN] | – | – | Inhibition [2]: 62.5%; Inhibition [3]: 93.5%; Kb [6]: 2.95 nM
CCc1nc2c(C)cc(C)nc2n1Cc1ccc(/C(=C\C(=O)O)c2ccccc2)cc1 (stereo in doubt; 12B) [listing 2 of 2 here] | – | 22.9 | –
CCc1nc2c(C)cc(C)nc2n1Cc1ccc(C(C(C)C)C(C)C(=O)O)cc1 (stereo not given) | 600 | 30.4 | –
CCc1nc2c(C)cc(C)nc2n1Cc1ccc(/C(=C\c2nn[nH]n2)c2ccccc2)cc1 (stereo in doubt; 22a) [listing 2 of 2 here] | – | 41 | –
CCc1nc2c(C)cc(C)nc2n1Cc1ccc(C(C)C(C)C(=O)O)cc1 (stereo not given) | – | 46 | –
CCc1nc2c(C)cc(C)nc2n1Cc1ccc(/C(=C(/Br)c2nn[nH]n2)c2ccccc2)cc1 (stereo in doubt; 22d) [listing 2 of 2 here] | 290 | – | –
CCc1nc2c(C)cc(C)nc2n1Cc1ccc(/C(=C\c2nn[nH]n2)c2ccccc2)cc1 (stereo in doubt; 22b) [listing 2 of 2 here] | 130 | – | –
CCc1nc2c(C)cc(C)nc2n1Cc1ccc(C(CC(=O)O)c2ccc(-c3ccncc3)cc2)cc1 (stereo not given) | 5300 | – | –
CCc1nc2c(C)cc(C)nc2n1Cc1ccc(C(CC(=O)O)c2ccc(OC)cc2)cc1 (stereo not given) | 3700 | – | –
CCc1nc2c(C)cc(C)nc2n1Cc1ccc(/C(=C\C(=O)O)c2ccccc2)cc1 (stereo in doubt; 12A) [listing 2 of 2 here] | – | 30.4 | –
CCc1nc2c(C)cc(C)nc2n1Cc1ccc(C(Cc2nnn[nH]2)c2ccccc2)cc1 (stereo not given) | 120 | 55.4 | –

Second part, led by results:

IC50 [1] [nM] | inhibition [4] [%] | SMILES | further results
58 | – | CCc1nc2c(C)cc(C)nc2n1Cc1ccc([C@H](c2ccccc2)[C@H](C)C(=O)NS(C)(=O)=O)cc1 | Inhibition [2]: 55.9%; Inhibition [3]: 71.3%
1100 | 17.1 | CCc1nc2c(C)cc(C)nc2n1Cc1ccc(C(c2ccc(C)cc2)C(C(=O)O)C(=O)O)cc1 (stereo not given) | –
120 | 79.9 | CCc1nc2c(C)cc(C)nc2n1Cc1ccc(C(c2ccccc2)C(C(=O)O)C(=O)O)cc1 (stereo not given) | –
71 | – | CCc1nc2c(C)cc(C)nc2n1Cc1ccc([C@H](c2ccccc2)[C@H](C)C(=O)O)cc1 (stereo in doubt; (+36)g) | Inhibition [3]: 80.9%
160 | 68.7 | CCc1nc2c(C)cc(C)nc2n1Cc1ccc(C(c2ccccc2)C(C#N)C(=O)O)cc1 (stereo not given) | –
180 | – | CCc1nc2c(C)cc(C)nc2n1Cc1ccc([C@H](c2ccccc2)[C@@H](C)C(=O)O)cc1 (stereo in doubt; (-)37g) | Inhibition [3]: 22.1%
210 | 62 | CCc1nc2c(C)cc(C)nc2n1Cc1ccc(C(c2ccccc2C)C(C(=O)O)C(=O)O)cc1 (stereo not given) | –
76 | – | CCc1nc2c(C)cc(C)nc2n1Cc1ccc([C@H](c2ccccc2)[C@H](C)C(=O)O)cc1 (stereo in doubt; (-36)g) | Inhibition [3]: 80.3%
130 | 68.7 | CCc1nc2c(C)cc(C)nc2n1Cc1ccc(C(CC(=O)O)c2ccccc2F)cc1 (stereo not given) | –
> 10000 | < 10 | CCc1nc2c(C)cc(C)nc2n1Cc1ccc(C(Cc2ccccc2)C(C(=O)O)C(=O)O)cc1 (stereo not given) | –
69 | – | CCc1nc2c(C)cc(C)nc2n1Cc1ccc([C@H](c2ccccc2)[C@H](C)C(=O)O)cc1 (stereo in doubt; 36g) | Inhibition [2]: 68.5%; Inhibition [3]: 84.8%; Kb [5]: 2.04 nM
440 | – | CCc1nc2c(C)cc(C)nc2n1Cc1ccc([C@H](c2ccccc2)[C@@H](C)C(=O)O)cc1 (stereo in doubt; (+)37g) | Inhibition [3]: 19.7%
71 | 73.7 | CCc1nc2c(C)cc(C)nc2n1Cc1ccc(C(c2ccccc2)C(C)C(=O)O)cc1 (stereo not given) | –
240 | 50.7 | CCc1nc2c(C)cc(C)nc2n1Cc1ccc(C(c2ccccc2)C(C)(C)C(=O)O)cc1 (stereo not given) | –
83 | – | CCC[C@H](C(=O)O)[C@@H](c1ccccc1)c1ccc(Cn2c(CC)nc3c(C)cc(C)nc32)cc1 | Inhibition [2]: 64%; Inhibition [3]: 73.8%
590 | – | CCC[C@@H](C(=O)O)[C@@H](c1ccccc1)c1ccc(Cn2c(CC)nc3c(C)cc(C)nc32)cc1 | Inhibition [3]: 27.8%
– | 32.3 | CCc1nc2c(C)cc(C)nc2n1Cc1ccc(C(c2ccccc2)C(C(=O)O)C(F)(F)F)cc1 (stereo not given) | –
250 | – | CCc1nc2c(C)cc(C)nc2n1Cc1ccc([C@H](c2ccccc2)[C@@H](C)C(=O)O)cc1 (stereo in doubt; 37g) | Inhibition [3]: 28.2%; Kb [6]: 49 nM
78 | 76.2 | CCc1nc2c(C)cc(C)nc2n1Cc1ccc(C(c2ccccc2)C(CC)C(=O)O)cc1 (stereo not given) | –
450 | – | CCc1nc2c(C)cc(C)nc2n1Cc1ccc([C@H](c2ccccc2)[C@@H](CC)C(=O)O)cc1 | Inhibition [3]: 44.9%
110 | 68.5 | CCc1nc2c(C)cc(C)nc2n1Cc1ccc(C(CC(=O)O)c2ccccc2)cc1 (stereo not given) | –
450 | 61.7 | CCc1nc2c(C)cc(C)nc2n1Cc1ccc(C(c2cccc(C)c2)C(C(=O)O)C(=O)O)cc1 (stereo not given) | –
50 | – | CCc1nc2c(C)cc(C)nc2n1Cc1ccc([C@H](c2ccccc2)[C@H](CC)C(=O)O)cc1 | Inhibition [2]: 73.3%; Inhibition [3]: 86.1%; Kb [6]: 3.89 nM
170 | 47.1 | CCc1nc2c(C)cc(C)nc2n1Cc1ccc(C(c2ccccc2)C(Br)C(=O)O)cc1 (stereo not given) | –
